Target: T1, ribonucleotide reductase (Mus musculus, UniProt P07742+P11157)
T1 construct: endogenous in cells; host or cells: Ehrlich ascites tumor cells
T1 sequence (P07742 1-792): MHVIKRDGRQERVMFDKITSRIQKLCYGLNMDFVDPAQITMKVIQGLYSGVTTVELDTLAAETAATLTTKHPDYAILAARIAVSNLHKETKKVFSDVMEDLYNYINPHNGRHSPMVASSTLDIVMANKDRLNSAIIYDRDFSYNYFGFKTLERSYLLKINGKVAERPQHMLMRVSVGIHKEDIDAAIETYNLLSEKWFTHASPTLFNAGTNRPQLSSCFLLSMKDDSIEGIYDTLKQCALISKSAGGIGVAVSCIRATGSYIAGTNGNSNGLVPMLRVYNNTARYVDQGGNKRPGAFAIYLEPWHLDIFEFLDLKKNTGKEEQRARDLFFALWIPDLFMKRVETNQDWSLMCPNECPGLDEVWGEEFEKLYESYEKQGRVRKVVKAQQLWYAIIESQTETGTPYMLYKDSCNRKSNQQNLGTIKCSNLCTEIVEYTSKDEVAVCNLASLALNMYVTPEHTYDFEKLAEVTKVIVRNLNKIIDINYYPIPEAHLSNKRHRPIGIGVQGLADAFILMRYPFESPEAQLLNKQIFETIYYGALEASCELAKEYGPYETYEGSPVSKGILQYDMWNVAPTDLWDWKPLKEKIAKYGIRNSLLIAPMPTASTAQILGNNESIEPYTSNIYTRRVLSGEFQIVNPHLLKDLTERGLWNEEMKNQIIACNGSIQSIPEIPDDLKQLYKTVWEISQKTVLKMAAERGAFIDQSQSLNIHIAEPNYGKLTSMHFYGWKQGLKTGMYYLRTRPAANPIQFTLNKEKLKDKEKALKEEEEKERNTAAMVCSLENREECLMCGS
T1 sequence (P11157 1-390): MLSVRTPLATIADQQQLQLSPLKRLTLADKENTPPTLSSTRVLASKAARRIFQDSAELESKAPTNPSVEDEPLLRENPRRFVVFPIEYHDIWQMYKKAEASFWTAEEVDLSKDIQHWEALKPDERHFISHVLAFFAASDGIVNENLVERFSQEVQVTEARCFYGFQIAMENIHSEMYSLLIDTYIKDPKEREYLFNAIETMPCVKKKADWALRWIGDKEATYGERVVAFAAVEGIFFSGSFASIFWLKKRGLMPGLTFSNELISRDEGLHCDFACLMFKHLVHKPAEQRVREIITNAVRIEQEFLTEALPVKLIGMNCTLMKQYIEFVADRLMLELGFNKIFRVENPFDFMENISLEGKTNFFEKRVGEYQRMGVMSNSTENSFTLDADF
Test: In vivo ribonucleotide reductase activity
Description: CF1 male mice (~30 g) were implanted with 2×10^6 Ehrlich ascites tumor cells, intraperitoneally on Day 0. Compound I was suspended by homogenation in 0.05% polysorbate.80-water and administered intraperitoneally at 10 and 20 mg/kg for 9 days to determine its effectiveness for inhibition of tumor growth. Mice were sacrificed on Day 10, and the ascites fluid was collected from the peritoneal cavity. The volume and ascrit (packed cell volume) were determined for each animal and the percent inhibition of tumor growth was calculated. For the metabolic studies, mice were treated on Days 8 and 9 with 10 mg/kg of Compound I, intraperitoneally. […]
Carbamyl phosphate synthetase activity was determined using the reaction medium of Kalman et al [Am. […] Citrulline formed from ornithine was measured at 490 nm by the method of Archibald [J. Biol. Chem., 156, 121 (1944)]. […] The ^14 CO2 generated in 15 min was trapped in 1M KOH and counted. Thymidylate synthetase activity was determined using a post-mitochondrial supernatant (9000 g×10 min) and 5 μCi of 5-^3 H-deoxyuridine monophosphate (14 Ci/mmol) according to the method of Kampf et al [ J. Med. Chem., 19, 903 (1976)]. ^14 C-Formate incorporation into purines was determined by the method of Spassova et al [Biochem. Pharmacol., 25, 923 (1976)] using 0.5 μCi of ^14 C-formic acid (52.0 mCi/mmol). […] The Rf value for xanthine monophosphate was scraped and counted. […]

With “{Cu[(CH3)3 N.BH2 CO2 ]2.(CH3)3 N.BH2 COOH} [Compound I]” the Ribonucleotide reductase activity was “unaffected” and the Riboncleotide reductase activity (10 mg/kg/day I.P. on Days 8 and 9) was 101 ± 8 % Control.

Reference: patent US4550186A, “Binuclear copper (II) carboxylates formed from amine-carboxyboranes” (Duke University, priority 1983, dated 1985)
